The source of these data is the NIST ThermoML archive (doi:10.1016/j.tca.2016.11.011).

Values joined by “and” are separate entries in the source; they are usually repeats but may differ in a detail not shown here. Equal entries are not always repeated. ± gives the expanded uncertainty stated by the source.

The conditions of the data set: DSC.
As to `COC(=O)C1=C(C)NC(C)=C(C(=O)OC)C1c1ccccc1[N+](=O)[O-]`, the Glass transition temperature is 44.5 ± 1 °C and 42.2 ± 1 °C.

`O[C@@H]1[C@@H](O)[C@@H]2OC[C@@H](O2)[C@H]1O` [1,6-anhydro-β-D-glucopyranose]: the Glass transition temperature was -24.7 ± 1 °C and -26.5 ± 1 °C.

As for `CC(=O)Nc1ccc(O)cc1` [N-acetyl-p-aminophenol], the Glass transition temperature was 24 ± 1 °C and 21.7 ± 1 °C.
